# From PubChem BioAssay (NCI)
#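 Five concentrations, 48 hours, 96-well plates. At the TGI there is no net growth.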
# How the values were obtained:
# Experiment in all cases: DTP human tumour cell line panel, 48 h
# 786-0 renal = system: 786-0 renal
# A498 renal = system: A498 renal
# A549 NSCLC = system: A549 NSCLC
# ACHN renal = system: ACHN renal
# BT-549 breast = system: BT-549 breast
# CAKI-1 renal = system: CAKI-1 renal
# CCRF-CEM leukemia = system: CCRF-CEM leukemia
# DU-145 prostate = system: DU-145 prostate
# HCC-2998 colon = system: HCC-2998 colon
# HCT-116 colon = system: HCT-116 colon
# HCT-15 colon = system: HCT-15 colon
# HL-60(TB) leukemia = system: HL-60(TB) leukemia
# HOP-62 NSCLC = system: HOP-62 NSCLC
# HT29 colon = system: HT29 colon
# K-562 leukemia = system: K-562 leukemia
# LOX IMVI melanoma = system: LOX IMVI melanoma
# M14 melanoma = system: M14 melanoma
# MALME-3M melanoma = system: MALME-3M melanoma
# MCF7 breast = system: MCF7 breast
# MDA-MB-231 breast = system: MDA-MB-231 breast
# MDA-MB-435 = system: MDA-MB-435
# MDA-N = system: MDA-N
# MOLT-4 leukemia = system: MOLT-4 leukemia
# NCI-H226 lung = system: NCI-H226 lung
# NCI-H23 lung = system: NCI-H23 lung
# NCI-H460 lung = system: NCI-H460 lung
# OVCAR-3 ovarian = system: OVCAR-3 ovarian
# OVCAR-4 ovarian = system: OVCAR-4 ovarian
# OVCAR-5 ovarian = system: OVCAR-5 ovarian
# OVCAR-8 ovarian = system: OVCAR-8 ovarian
# PC-3 prostate = system: PC-3 prostate
# RPMI-8226 leukemia = system: RPMI-8226 leukemia
# SF-268 CNS = system: SF-268 CNS
# SK-MEL-2 melanoma = system: SK-MEL-2 melanoma
# SK-MEL-28 melanoma = system: SK-MEL-28 melanoma
# SK-MEL-5 melanoma = system: SK-MEL-5 melanoma
# SN12C renal = system: SN12C renal
# SNB-19 CNS = system: SNB-19 CNS
# SNB-75 CNS = system: SNB-75 CNS
# SR leukemia = system: SR leukemia
# SW-620 colon = system: SW-620 colon
# T-47D breast = system: T-47D breast
# TK-10 renal = system: TK-10 renal
# U251 CNS = system: U251 CNS
# UACC-257 melanoma = system: UACC-257 melanoma
# UACC-62 melanoma = system: UACC-62 melanoma
# UO-31 renal = system: UO-31 renal
# COLO 205 colon = system: COLO 205 colon
# HOP-92 NSCLC = system: HOP-92 NSCLC
# HS 578T breast = system: HS 578T breast
# IGROV1 ovarian = system: IGROV1 ovarian
# KM12 colon = system: KM12 colon
# NCI-H522 lung = system: NCI-H522 lung
# NCI/ADR-RES ovarian = system: NCI/ADR-RES ovarian
# RXF 393 renal = system: RXF 393 renal
# SF-295 CNS = system: SF-295 CNS
# SF-539 CNS = system: SF-539 CNS
# SK-OV-3 ovarian = system: SK-OV-3 ovarian
# EKVX NSCLC = system: EKVX NSCLC
structure (smiles),measurement,setting,value
COC(=O)C(CCCCNC(=O)CNC(=O)OCc1ccccc1)NC(=O)C(CCCCNC(=O)CNC(=O)OCc1ccccc1)NC(=O)OCc1ccccc1 (stereo unspecified),TGI,786-0 renal,> 100 µM
same,TGI,A498 renal,> 100 µM
same,TGI,A549 NSCLC,> 100 µM
same,TGI,ACHN renal,> 100 µM
same,TGI,BT-549 breast,> 100 µM
same,TGI,CAKI-1 renal,> 100 µM
same,TGI,CCRF-CEM leukemia,> 100 µM
same,TGI,DU-145 prostate,> 100 µM
same,TGI,HCC-2998 colon,> 100 µM
same,TGI,HCT-116 colon,> 100 µM
same,TGI,HCT-15 colon,> 100 µM
same,TGI,HL-60(TB) leukemia,> 100 µM
same,TGI,HOP-62 NSCLC,> 100 µM
same,TGI,HT29 colon,> 100 µM
same,TGI,K-562 leukemia,> 100 µM
same,TGI,LOX IMVI melanoma,> 100 µM
same,TGI,M14 melanoma,> 100 µM
same,TGI,MALME-3M melanoma,> 100 µM
same,TGI,MCF7 breast,19.1 µM
same,TGI,MDA-MB-231 breast,> 100 µM
same,TGI,MDA-MB-435,> 100 µM
same,TGI,MDA-N,> 100 µM
same,TGI,MOLT-4 leukemia,> 100 µM
same,TGI,NCI-H226 lung,> 100 µM
same,TGI,NCI-H23 lung,> 100 µM
same,TGI,NCI-H460 lung,> 100 µM
same,TGI,OVCAR-3 ovarian,> 100 µM
same,TGI,OVCAR-4 ovarian,89.9 µM
same,TGI,OVCAR-5 ovarian,> 100 µM
same,TGI,OVCAR-8 ovarian,> 100 µM
same,TGI,PC-3 prostate,> 100 µM
same,TGI,RPMI-8226 leukemia,53.5 µM
same,TGI,SF-268 CNS,> 100 µM
same,TGI,SK-MEL-2 melanoma,54.2 µM
same,TGI,SK-MEL-28 melanoma,> 100 µM
same,TGI,SK-MEL-5 melanoma,> 100 µM
same,TGI,SN12C renal,> 100 µM
same,TGI,SNB-19 CNS,> 100 µM
same,TGI,SNB-75 CNS,> 100 µM
same,TGI,SR leukemia,> 100 µM
same,TGI,SW-620 colon,> 100 µM
same,TGI,T-47D breast,> 100 µM
same,TGI,TK-10 renal,> 100 µM
same,TGI,U251 CNS,> 100 µM
same,TGI,UACC-257 melanoma,> 100 µM
same,TGI,UACC-62 melanoma,> 100 µM
same,TGI,UO-31 renal,> 100 µM
O=C1NN=C(c2c[nH]c3ccccc23)CC1NCc1ccccc1 (stereo unspecified),TGI,786-0 renal,> 100 µM
same,TGI,A498 renal,> 100 µM
same,TGI,A549 NSCLC,> 100 µM
same,TGI,ACHN renal,> 100 µM
same,TGI,BT-549 breast,> 100 µM
same,TGI,CAKI-1 renal,> 100 µM
same,TGI,CCRF-CEM leukemia,> 100 µM
same,TGI,COLO 205 colon,> 100 µM
same,TGI,DU-145 prostate,> 100 µM
same,TGI,HCT-116 colon,> 100 µM
same,TGI,HCT-15 colon,> 100 µM
same,TGI,HL-60(TB) leukemia,> 100 µM
same,TGI,HOP-62 NSCLC,> 100 µM
same,TGI,HOP-92 NSCLC,> 100 µM
same,TGI,HS 578T breast,> 100 µM
same,TGI,HT29 colon,> 100 µM
same,TGI,IGROV1 ovarian,> 100 µM
same,TGI,K-562 leukemia,> 100 µM
same,TGI,KM12 colon,> 100 µM
same,TGI,LOX IMVI melanoma,> 100 µM
same,TGI,M14 melanoma,> 100 µM
same,TGI,MALME-3M melanoma,> 100 µM
same,TGI,MDA-MB-231 breast,> 100 µM
same,TGI,MDA-MB-435,> 100 µM
same,TGI,MDA-N,> 100 µM
same,TGI,MOLT-4 leukemia,> 100 µM
same,TGI,NCI-H226 lung,> 100 µM
same,TGI,NCI-H23 lung,> 100 µM
same,TGI,NCI-H460 lung,> 100 µM
same,TGI,NCI-H522 lung,> 100 µM
same,TGI,NCI/ADR-RES ovarian,> 100 µM
same,TGI,OVCAR-3 ovarian,> 100 µM
same,TGI,OVCAR-5 ovarian,> 100 µM
same,TGI,OVCAR-8 ovarian,> 100 µM
same,TGI,PC-3 prostate,> 100 µM
same,TGI,RPMI-8226 leukemia,> 100 µM
same,TGI,RXF 393 renal,> 100 µM
same,TGI,SF-268 CNS,> 100 µM
same,TGI,SF-295 CNS,> 100 µM
same,TGI,SF-539 CNS,> 100 µM
same,TGI,SK-MEL-2 melanoma,> 100 µM
same,TGI,SK-MEL-28 melanoma,> 100 µM
same,TGI,SK-MEL-5 melanoma,> 100 µM
same,TGI,SK-OV-3 ovarian,> 100 µM
same,TGI,SN12C renal,> 100 µM
same,TGI,SNB-19 CNS,> 100 µM
same,TGI,SNB-75 CNS,> 100 µM
same,TGI,SW-620 colon,> 100 µM
same,TGI,T-47D breast,> 100 µM
same,TGI,TK-10 renal,> 100 µM
same,TGI,U251 CNS,> 100 µM
same,TGI,UACC-257 melanoma,> 100 µM
same,TGI,UACC-62 melanoma,> 100 µM
same,TGI,UO-31 renal,> 100 µM
COc1ccc(/C(C)=N/NC(=S)N(C)C)c(O)c1,TGI,A549 NSCLC,> 100 µM
same,TGI,ACHN renal,> 100 µM
same,TGI,BT-549 breast,66.6 µM
same,TGI,CAKI-1 renal,96.6 µM
same,TGI,CCRF-CEM leukemia,87.9 µM
same,TGI,COLO 205 colon,12.4 µM
same,TGI,DU-145 prostate,> 100 µM
same,TGI,EKVX NSCLC,> 100 µM
same,TGI,HCC-2998 colon,> 100 µM
same,TGI,HCT-116 colon,> 100 µM
same,TGI,HOP-62 NSCLC,> 100 µM
same,TGI,HOP-92 NSCLC,98.8 µM
same,TGI,HS 578T breast,> 100 µM
same,TGI,HT29 colon,> 100 µM
same,TGI,IGROV1 ovarian,23.2 µM
same,TGI,KM12 colon,> 100 µM
same,TGI,LOX IMVI melanoma,12.4 µM
same,TGI,M14 melanoma,> 100 µM
same,TGI,MDA-MB-231 breast,> 100 µM
same,TGI,MDA-MB-435,> 100 µM
same,TGI,MDA-N,> 100 µM
same,TGI,MOLT-4 leukemia,> 100 µM
same,TGI,NCI-H23 lung,72.9 µM
same,TGI,NCI-H460 lung,> 100 µM
same,TGI,NCI-H522 lung,> 100 µM
same,TGI,OVCAR-3 ovarian,> 100 µM
same,TGI,OVCAR-4 ovarian,9.48 µM
same,TGI,OVCAR-5 ovarian,> 100 µM
same,TGI,PC-3 prostate,> 100 µM
same,TGI,RPMI-8226 leukemia,> 100 µM
same,TGI,SF-268 CNS,> 100 µM
same,TGI,SF-295 CNS,> 100 µM
same,TGI,SK-MEL-2 melanoma,> 100 µM
same,TGI,SK-MEL-28 melanoma,> 100 µM
same,TGI,SK-MEL-5 melanoma,> 100 µM
same,TGI,SK-OV-3 ovarian,> 100 µM
same,TGI,SN12C renal,> 100 µM
same,TGI,SNB-19 CNS,> 100 µM
same,TGI,SNB-75 CNS,> 100 µM
same,TGI,SR leukemia,> 100 µM
same,TGI,SW-620 colon,> 100 µM
same,TGI,T-47D breast,> 100 µM
same,TGI,U251 CNS,> 100 µM
same,TGI,UACC-257 melanoma,77.7 µM
same,TGI,UACC-62 melanoma,20.1 µM
same,TGI,UO-31 renal,36 µM
N/C(CSCCSC/C(N)=N/O)=N\O,TGI,786-0 renal,> 100 µM
same,TGI,A549 NSCLC,> 100 µM
same,TGI,ACHN renal,> 100 µM
same,TGI,BT-549 breast,> 100 µM
same,TGI,CAKI-1 renal,> 100 µM
same,TGI,CCRF-CEM leukemia,> 100 µM
same,TGI,COLO 205 colon,> 100 µM
same,TGI,DU-145 prostate,> 100 µM
same,TGI,EKVX NSCLC,> 100 µM
same,TGI,HCC-2998 colon,> 100 µM
same,TGI,HCT-116 colon,> 100 µM
same,TGI,HCT-15 colon,> 100 µM
same,TGI,HL-60(TB) leukemia,> 100 µM
same,TGI,HOP-62 NSCLC,> 100 µM
same,TGI,HOP-92 NSCLC,> 100 µM
same,TGI,HS 578T breast,> 100 µM
same,TGI,HT29 colon,> 100 µM
same,TGI,IGROV1 ovarian,> 100 µM
same,TGI,K-562 leukemia,> 100 µM
same,TGI,KM12 colon,> 100 µM
same,TGI,LOX IMVI melanoma,> 100 µM
same,TGI,M14 melanoma,> 100 µM
same,TGI,MALME-3M melanoma,> 100 µM
same,TGI,MCF7 breast,> 100 µM
same,TGI,MDA-MB-231 breast,> 100 µM
same,TGI,MDA-MB-435,> 100 µM
same,TGI,MDA-N,> 100 µM
same,TGI,MOLT-4 leukemia,> 100 µM
same,TGI,NCI-H226 lung,> 100 µM
same,TGI,NCI-H23 lung,> 100 µM
same,TGI,NCI-H460 lung,> 100 µM
same,TGI,NCI-H522 lung,> 100 µM
same,TGI,NCI/ADR-RES ovarian,> 100 µM
same,TGI,OVCAR-3 ovarian,> 100 µM
same,TGI,OVCAR-4 ovarian,> 100 µM
same,TGI,OVCAR-5 ovarian,> 100 µM
same,TGI,PC-3 prostate,> 100 µM
same,TGI,RPMI-8226 leukemia,> 100 µM
same,TGI,RXF 393 renal,> 100 µM
same,TGI,SF-268 CNS,> 100 µM
same,TGI,SF-539 CNS,> 100 µM
same,TGI,SK-MEL-28 melanoma,> 100 µM
same,TGI,SK-MEL-5 melanoma,> 100 µM
same,TGI,SK-OV-3 ovarian,> 100 µM
same,TGI,SN12C renal,> 100 µM
same,TGI,SNB-19 CNS,> 100 µM
same,TGI,SNB-75 CNS,> 100 µM
same,TGI,SR leukemia,> 100 µM
same,TGI,SW-620 colon,> 100 µM
same,TGI,T-47D breast,> 100 µM
same,TGI,TK-10 renal,> 100 µM
same,TGI,U251 CNS,> 100 µM
same,TGI,UACC-62 melanoma,> 100 µM
same,TGI,UO-31 renal,> 100 µM
